Marks after values point to notes of the source that are not given here. One block for each compound: values may come before it.
Columns and labels:
[1] = system: Imiquimod induced psoriasis in BALB/c mice; experiment: Imiquimod induced psoriasis model in Balb/c mice; details: for % inhibition of Ear inflamn. / Histopathology Scores Epidermal Thickness / Histopathology Scores Hyperkeratosis / Histopathology Scores Rete Peg Prolifern. / PASI score / Spleen weight / IL23 Levels (pg/ml): twice daily; for IL23 Levels (pg/ml): ear tissue lysate
Method: BALB/c mice (Sex: Female, Age: 7-8 Weeks) were used for induction of psoriasis using IMQ. Topical application of imiquimod (IMQ) in mice can induce and exacerbate psoriasis closely resembling human psoriasis. […] 3%, 4% and 5% and positive control of Tenovate (Clobetasol) 0.05% cream. In all 63 mg cream containing 5% of IMQ was applied to dorsal area (shaved back) and right ear for 8 days. Topical formulations from Example 7 were used during this experiment.
The parameters investigated were ear thickness change, % inhibition of ear inflammation, Psoriatic Area Severity Index (PASI). Histopathology was performed of right ear and dorsal skin by H & E staining. The biomarker in this study was inflammatory cytokine IL-23 analyzed by ELISA obtained from tissue lysate of ear region where IMQ and doses were applied.

PDE5 (Human platelets) = target: T1, PDE5 (Human platelets) (Homo sapiens, UniProt O76074); experiment: Radiolabeled enzyme assay PDE5; assay type: biochemical; details: read-out: % inhibition at 30 μM, 1.01 μM [3H]cGMP+cGMP
T1 construct: PDE5 (Human platelets); from tissue; host or cells: human platelets
Method: (§1) Enzyme assays have been optimized for incubation time, substrate concentration and method of end-product determination.

Human IL-17F = experiment: IL-17F release from stimulated PBMCs, ELISA; assay type: cell-based; details: PMA+Ionomycin, 18 hrs
Method: (§2) Fresh human blood from healthy volunteer was collected in anticoagulant (5 mM) ethylene diamine tetra acetic acid (EDTA) containing tubes. The growth medium used was RPMI-1640 medium (with 3% FBS) and incubated at 37° C. for 60 mins in a 5% CO2 incubator with vehicle used as 1% DMSO. The cell viability was checked at various time points using Alamar blue and fluorescence readings were taken at excitation of 544 nm and emission of 590 nm.
(§3) PBMCs were stimulated with different stimulators as follows: • a. Cells were exposed to stimulator LPS at 100 ng/mL for 18 hrs to stimulate TNF-α, IL-6, IFN-γ, IL10, IL-1β • b. Cells were exposed to stimulator IFN-γ+LPS at 100 ng/mL+1 μg/mL for 18 hrs to stimulate IL-12 • c. Cells were exposed to stimulator PMA+Ionomycin at 50 ng/mL+1 μg/mL for 18 hrs to stimulate IL-23, IL-22, IL-17A, IL-17F
(§4) After 18 hrs supernatants were collected and centrifuged to remove any cell debris and aliquots were used for ELISA.

PDE4 (Human U937 cells) = experiment: Radiolabeled enzyme assay PDE4; assay type: biochemical; details: 1.01 μM [3H]cAMP+cAMP
Method: as §1

Human TNF-α = experiment: TNF-α release from stimulated PBMCs, ELISA; assay type: cell-based; details: LPS 100 ng/mL, 18 hrs
Method: as §2, §3, §4

PDE1 (Bovine brain) = experiment: Radiolabeled enzyme assay PDE1; assay type: biochemical; details: 1.01 μM [3H]cAMP+cAMP
Method: as §1

PDE1A = PDE1A (Homo sapiens, UniProt P54750); experiment: Fluorescence polarization assay PDE1A; assay type: biochemical; details: substrate cGMP, Ca-CaM
Method: (§5) An experiment to check inhibition of various subtypes of the target Phosphodiesterase (PDE) enzyme in in-vitro assay was performed. […] PDE1A, PDE2A, PDE4A, PDE4B, PDE4C, PDE4D, PDE5A, PDE7A, PDE9A, PDE10A.

PDE3 (Human platelets) = target: T2, PDE3 (Human platelets) (Homo sapiens, UniProt Q14432); experiment: Radiolabeled enzyme assay PDE3; assay type: biochemical; details: read-out: % inhibition at 30 μM, 1.01 μM [3H]cAMP+cAMP
T2 construct: PDE3 (Human platelets); from tissue; host or cells: human platelets
Method: as §1

PDE2 (Human platelets) = target: T3, PDE2 (Human platelets) (Homo sapiens, UniProt O00408); experiment: Radiolabeled enzyme assay PDE2; assay type: biochemical; details: read-out: % inhibition at 30 μM, 1.01 μM [3H]cAMP+cAMP
T3 construct: PDE2 (Human platelets); from tissue; host or cells: human platelets
Method: as §1

PDE4B = PDE4B (Homo sapiens, UniProt Q07343); experiment: Fluorescence polarization assay PDE4B; assay type: biochemical; details: substrate cAMP
Method: as §5

PDE4C = PDE4C (Homo sapiens, UniProt Q08493); experiment: Fluorescence polarization assay PDE4C; assay type: biochemical; details: substrate cAMP
Method: as §5

PDE7A = PDE7A (Homo sapiens, UniProt Q13946); experiment: Fluorescence polarization assay PDE7A; assay type: biochemical; details: substrate cAMP
Method: as §5

PDE5A = PDE5A (Homo sapiens, UniProt O76074); experiment: Fluorescence polarization assay PDE5A; assay type: biochemical; details: substrate cGMP
Method: as §5

Chain of PDE4B (Q07343 whole entry, species assumed): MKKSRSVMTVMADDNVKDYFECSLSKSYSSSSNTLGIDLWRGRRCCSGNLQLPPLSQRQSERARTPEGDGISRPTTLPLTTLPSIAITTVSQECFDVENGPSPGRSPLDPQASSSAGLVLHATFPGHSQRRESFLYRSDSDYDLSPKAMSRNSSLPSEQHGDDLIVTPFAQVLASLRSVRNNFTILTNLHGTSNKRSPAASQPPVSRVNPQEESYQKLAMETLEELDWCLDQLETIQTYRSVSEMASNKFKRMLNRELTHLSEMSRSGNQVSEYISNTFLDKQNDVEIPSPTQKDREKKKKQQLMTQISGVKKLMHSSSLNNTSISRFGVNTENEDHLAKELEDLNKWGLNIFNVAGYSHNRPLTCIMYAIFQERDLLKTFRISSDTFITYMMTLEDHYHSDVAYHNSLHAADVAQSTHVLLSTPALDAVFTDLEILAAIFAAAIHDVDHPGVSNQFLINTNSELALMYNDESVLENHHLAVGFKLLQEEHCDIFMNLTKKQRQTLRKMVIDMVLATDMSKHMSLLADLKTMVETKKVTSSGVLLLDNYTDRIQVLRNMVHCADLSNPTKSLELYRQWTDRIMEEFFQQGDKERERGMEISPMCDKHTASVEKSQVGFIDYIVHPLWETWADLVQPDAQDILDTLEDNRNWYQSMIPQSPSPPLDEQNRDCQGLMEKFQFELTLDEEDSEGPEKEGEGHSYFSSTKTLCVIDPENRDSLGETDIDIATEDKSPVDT
Chain of PDE1A (P54750 whole entry, species assumed): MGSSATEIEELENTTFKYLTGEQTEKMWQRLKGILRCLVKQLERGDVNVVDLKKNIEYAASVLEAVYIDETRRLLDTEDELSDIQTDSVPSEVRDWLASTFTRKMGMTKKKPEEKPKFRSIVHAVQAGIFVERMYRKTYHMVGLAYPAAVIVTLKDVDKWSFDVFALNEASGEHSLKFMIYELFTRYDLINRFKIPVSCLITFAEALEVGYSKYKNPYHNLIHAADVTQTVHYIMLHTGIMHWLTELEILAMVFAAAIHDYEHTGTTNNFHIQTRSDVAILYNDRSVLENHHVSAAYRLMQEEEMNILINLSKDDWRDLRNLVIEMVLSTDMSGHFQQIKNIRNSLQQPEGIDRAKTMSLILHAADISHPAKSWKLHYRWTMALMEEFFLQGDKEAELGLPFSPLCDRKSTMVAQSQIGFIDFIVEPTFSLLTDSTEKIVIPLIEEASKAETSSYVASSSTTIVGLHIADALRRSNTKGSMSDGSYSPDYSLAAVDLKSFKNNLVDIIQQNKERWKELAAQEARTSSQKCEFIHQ
T3 sequence (O00408 whole entry): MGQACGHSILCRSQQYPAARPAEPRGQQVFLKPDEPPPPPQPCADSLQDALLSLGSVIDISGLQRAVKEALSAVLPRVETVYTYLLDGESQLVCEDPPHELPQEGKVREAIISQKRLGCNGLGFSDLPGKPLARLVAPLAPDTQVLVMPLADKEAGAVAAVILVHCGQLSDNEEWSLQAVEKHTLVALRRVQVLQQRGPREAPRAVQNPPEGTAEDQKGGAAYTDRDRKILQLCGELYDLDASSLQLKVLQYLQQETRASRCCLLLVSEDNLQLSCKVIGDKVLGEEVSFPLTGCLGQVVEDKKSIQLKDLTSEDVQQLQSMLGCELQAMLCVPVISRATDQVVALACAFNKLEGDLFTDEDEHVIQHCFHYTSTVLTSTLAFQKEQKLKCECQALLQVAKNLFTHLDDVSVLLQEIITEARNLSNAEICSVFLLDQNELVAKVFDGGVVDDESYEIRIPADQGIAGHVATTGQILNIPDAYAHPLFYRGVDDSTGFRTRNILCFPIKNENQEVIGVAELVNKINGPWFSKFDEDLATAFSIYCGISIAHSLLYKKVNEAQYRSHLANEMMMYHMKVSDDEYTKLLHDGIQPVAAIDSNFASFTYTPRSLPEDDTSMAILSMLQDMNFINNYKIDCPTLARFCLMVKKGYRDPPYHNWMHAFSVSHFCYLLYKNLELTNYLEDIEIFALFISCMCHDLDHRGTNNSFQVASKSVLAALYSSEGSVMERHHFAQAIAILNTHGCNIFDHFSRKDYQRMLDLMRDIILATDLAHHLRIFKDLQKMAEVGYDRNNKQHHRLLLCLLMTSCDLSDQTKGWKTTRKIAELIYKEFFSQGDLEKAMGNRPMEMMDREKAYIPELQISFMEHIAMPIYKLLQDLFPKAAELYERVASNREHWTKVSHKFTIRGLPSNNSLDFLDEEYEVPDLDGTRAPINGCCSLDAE
Chain of PDE4C (Q08493 whole entry, species assumed): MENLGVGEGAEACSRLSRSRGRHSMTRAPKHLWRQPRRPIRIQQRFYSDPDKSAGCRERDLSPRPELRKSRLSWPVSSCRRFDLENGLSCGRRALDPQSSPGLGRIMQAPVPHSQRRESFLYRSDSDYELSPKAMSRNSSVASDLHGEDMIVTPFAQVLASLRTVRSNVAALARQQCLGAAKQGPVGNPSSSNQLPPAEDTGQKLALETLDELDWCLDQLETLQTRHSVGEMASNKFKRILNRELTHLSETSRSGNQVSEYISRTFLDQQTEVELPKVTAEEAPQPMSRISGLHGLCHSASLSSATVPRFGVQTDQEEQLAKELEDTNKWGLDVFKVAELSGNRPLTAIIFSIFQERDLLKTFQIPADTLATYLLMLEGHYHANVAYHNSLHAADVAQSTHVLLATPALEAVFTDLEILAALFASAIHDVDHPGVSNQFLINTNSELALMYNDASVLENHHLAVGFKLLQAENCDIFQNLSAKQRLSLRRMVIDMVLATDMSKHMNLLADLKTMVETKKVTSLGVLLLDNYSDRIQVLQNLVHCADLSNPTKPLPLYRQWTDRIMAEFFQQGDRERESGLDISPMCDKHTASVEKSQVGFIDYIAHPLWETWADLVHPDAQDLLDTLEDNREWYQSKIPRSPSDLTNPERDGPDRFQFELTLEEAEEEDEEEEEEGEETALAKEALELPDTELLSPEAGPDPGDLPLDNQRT
T2 sequence (Q14432 whole entry): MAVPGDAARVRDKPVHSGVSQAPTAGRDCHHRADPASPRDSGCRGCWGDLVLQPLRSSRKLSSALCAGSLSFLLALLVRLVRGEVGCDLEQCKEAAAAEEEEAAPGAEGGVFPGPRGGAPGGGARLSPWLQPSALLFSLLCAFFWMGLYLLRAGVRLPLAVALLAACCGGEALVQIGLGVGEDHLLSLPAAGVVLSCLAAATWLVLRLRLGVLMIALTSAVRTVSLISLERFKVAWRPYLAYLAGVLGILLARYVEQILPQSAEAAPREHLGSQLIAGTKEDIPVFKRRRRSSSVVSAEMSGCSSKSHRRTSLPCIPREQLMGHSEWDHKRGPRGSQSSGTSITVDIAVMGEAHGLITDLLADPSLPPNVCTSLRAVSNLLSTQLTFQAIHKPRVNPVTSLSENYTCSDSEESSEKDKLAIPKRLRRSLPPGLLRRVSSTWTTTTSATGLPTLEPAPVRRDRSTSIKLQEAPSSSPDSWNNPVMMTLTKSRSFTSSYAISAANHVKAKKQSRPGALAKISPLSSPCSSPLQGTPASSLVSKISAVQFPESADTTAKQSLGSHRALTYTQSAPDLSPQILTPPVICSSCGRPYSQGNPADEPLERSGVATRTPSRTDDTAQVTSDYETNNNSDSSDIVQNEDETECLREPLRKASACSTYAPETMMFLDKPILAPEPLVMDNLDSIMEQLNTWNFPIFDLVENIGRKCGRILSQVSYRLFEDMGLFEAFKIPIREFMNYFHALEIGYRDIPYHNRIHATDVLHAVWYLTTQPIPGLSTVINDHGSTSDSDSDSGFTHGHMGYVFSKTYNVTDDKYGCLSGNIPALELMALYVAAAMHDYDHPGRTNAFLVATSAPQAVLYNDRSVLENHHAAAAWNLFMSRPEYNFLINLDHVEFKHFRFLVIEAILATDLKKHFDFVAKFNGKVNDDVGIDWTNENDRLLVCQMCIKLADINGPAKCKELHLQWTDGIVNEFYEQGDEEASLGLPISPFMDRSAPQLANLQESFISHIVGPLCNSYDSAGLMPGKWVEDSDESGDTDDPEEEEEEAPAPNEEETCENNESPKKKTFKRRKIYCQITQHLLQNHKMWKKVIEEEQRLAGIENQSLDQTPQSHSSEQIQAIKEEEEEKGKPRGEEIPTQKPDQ
Chain of PDE7A (Q13946 whole entry, species assumed): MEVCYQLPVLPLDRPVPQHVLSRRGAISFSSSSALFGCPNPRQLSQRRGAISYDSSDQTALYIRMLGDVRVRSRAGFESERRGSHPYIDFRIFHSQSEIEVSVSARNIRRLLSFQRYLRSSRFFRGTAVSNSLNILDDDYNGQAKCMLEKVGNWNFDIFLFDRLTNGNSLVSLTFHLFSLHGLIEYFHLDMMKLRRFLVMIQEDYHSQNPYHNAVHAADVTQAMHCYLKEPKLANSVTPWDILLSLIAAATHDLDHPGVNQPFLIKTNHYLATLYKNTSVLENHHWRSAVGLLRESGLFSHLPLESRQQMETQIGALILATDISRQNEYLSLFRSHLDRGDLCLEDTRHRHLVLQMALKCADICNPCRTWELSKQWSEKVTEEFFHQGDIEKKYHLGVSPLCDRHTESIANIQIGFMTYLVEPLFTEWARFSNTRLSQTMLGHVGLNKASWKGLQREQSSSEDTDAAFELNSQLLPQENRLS

inhibition at 30 µM (PDE5 (Human platelets)): 9%
% inhibition at 30 μM (PDE1 (Bovine brain)): 18%
IC50 (PDE1A): 137 µM
inhibition at 30 µM (PDE3 (Human platelets)): -4%
inhibition at 30 µM (PDE2 (Human platelets)): 13%
IC50 (PDE4B): > 500 µM
Structure (SMILES): CC(=O)Oc1ccccc1C(=O)Nc1ncc([N+](=O)[O-])s1 [Nitazoxanide]
% inhibition of Ear inflamn. ([1]; 3% topical): −5.9%
Histopathology Scores Epidermal Thickness ([1]; 3% topical): 5.6 ± 0.4
Histopathology Scores Hyperkeratosis ([1]; 3% topical): 1.0 ± 0.0^$
Histopathology Scores Rete Peg Prolifern. ([1]; 3% topical): 1.2 ± 0.2
PASI score ([1]; 3% topical): 14.2 ± 5.1
Spleen weight ([1]; 3% topical, Day 9): 203.6 ± 22.6 mg
IL23 Levels (pg/ml) ([1]; 3% topical): 147.79^# pg/ml
% inhibition of Ear inflamn. ([1]; 4% topical): 26.1%
Histopathology Scores Epidermal Thickness ([1]; 4% topical): 4.7 ± 0.3
Histopathology Scores Hyperkeratosis ([1]; 4% topical): 1.3 ± 0.2
Histopathology Scores Rete Peg Prolifern. ([1]; 4% topical): 1.0 ± 0.3
PASI score ([1]; 4% topical): 21.5 ± 3.4
Spleen weight ([1]; 4% topical, Day 9): 274.7 ± 54.3 mg
IL23 Levels (pg/ml) ([1]; 4% topical): 128.67* pg/ml
% inhibition of Ear inflamn. ([1]; 5% topical): 40.9%
Histopathology Scores Epidermal Thickness ([1]; 5% topical): 5.3 ± 0.6
Histopathology Scores Hyperkeratosis ([1]; 5% topical): 1.1 ± 0.1
Histopathology Scores Rete Peg Prolifern. ([1]; 5% topical): 1.1 ± 0.1
PASI score ([1]; 5% topical): 13.1 ± 1.6
Spleen weight ([1]; 5% topical, Day 9): 204.1 ± 15.3 mg
IL23 Levels (pg/ml) ([1]; 5% topical): 89.45* pg/ml
Spleen weight vs disease control (in words) ([1]; Niclosamide 2%, Nitazoxanide 3% and 5%, Clobetasol 0.05%, Day 9): marginal reduction in spleen weight
IL-23 level in ear tissue homogenates (in words) ([1]; different doses): reduction of IL-23 level
Hyperkeratosis (in words) ([1]; ear lobe histopathology): significant reduction in Hyperkeratosis
Human IL-17F concentration (Human IL-17F; 1 μM): 166 pg/mL
Human IL-17F concentration (Human IL-17F; 10 μM): 0 pg/mL
Human IL-17F concentration (Human IL-17F; 25 μM): 0 pg/mL
Human IL-17F concentration (Human IL-17F; 50 μM): 0 pg/mL
% inhibition at 30 μM (PDE4 (Human U937 cells)): 89%
Human TNF-α concentration (Human TNF-α; 1 μM): 5708 pg/mL
Human TNF-α concentration (Human TNF-α; 10 μM): 3472 pg/mL
Human TNF-α concentration (Human TNF-α; 25 μM): 3679 pg/mL
Human TNF-α concentration (Human TNF-α; 50 μM): 2896 pg/mL

IC50 (PDE4C): 366 µM
IC50 (PDE1A): 96.1 µM
IC50 (PDE7A): 134 µM
IC50 (PDE5A): 136 µM
IC50 (PDE4B): > 500 µM
Structure (SMILES): O=C(Nc1ncc([N+](=O)[O-])s1)c1ccccc1O [Tizoxanide]
Human IL-17F concentration (Human IL-17F; 1 μM): 151 pg/mL
Human IL-17F concentration (Human IL-17F; 10 μM): 0 pg/mL
Human IL-17F concentration (Human IL-17F; 25 μM): 0 pg/mL
Human IL-17F concentration (Human IL-17F; 50 μM): 0 pg/mL
Human TNF-α concentration (Human TNF-α; 1 μM): 5351 pg/mL
Human TNF-α concentration (Human TNF-α; 10 μM): 3244 pg/mL
Human TNF-α concentration (Human TNF-α; 25 μM): 3489 pg/mL
Human TNF-α concentration (Human TNF-α; 50 μM): 2440 pg/mL

— patent publication US11786492B2, “Therapeutic agent for phosphodiesterase inhibition and its related disorders” (Novalead Pharma Inc, priority 2017, dated 2023)
